This is an account of results in patent US20090215666A1, “VIVIT POLYPEPTIDES, THERAPEUTIC AGENT COMPRISING THE SAME, AND METHOD OF SCREENING FOR ANTI-CANCER AGENT” (Oncotherapy Science, Inc., priority 2005, published 2009).

Ends that are not written are not given here.

In data set [1] the test system is PK-1 cells. Kind of data set: MTT cell-growth assay for evaluation of inhibitory peptides. To be noted: FIG. 4. Format: cell-based, Human. On the technique in general: Formazan colour is commonly taken as a measure of viable cells.
For data set [2], the system named is PK-1 cells. The experiment in a line: Flow cytometric analysis of sub-G1 fraction (propidium iodide). Format: cell-based, Human. To be noted: 40 μM, 12 hr, FIG. 7. The method, then: PK-1 cell was maintained as described before (RPMI with 10% FBS). The cells were incubated with or without negative control (40 μM as a final concentration) or C1958VIVIT (10, 20, and 40 μM) peptide for 12 hr. After the incubation, cells were detached by trypsin and collected to tubes and washed with PBS for 3 times. Then the cells were fixed with 67% ethanol for 30 min at room temperature (RT), washed with PBS once, and treated with RNase (2 mg/ml in PBS) for 30 min at RT. Finally the cell nuclei were stained with propidium iodide (PI) for 30 min at RT. Flow cytometric analysis was done with FACS calibur (BD).
On the technique in general: In flow cytometry, cells or beads pass a laser one at a time.

Details of data set [3]: species or system mice (BALB/cA Jcl-nu). To be noted: mouse, in vivo, 9 mg/kg/day. The method, then:
In vivo experiments were performed in our animal facility in accordance with institutional guidelines. A 0.1-ml aliquot of suspended PK-1 cells (5×10^6 cells) was injected subcutaneously into the flanks of six-week-old female athymic mice (BALB/cA Jcl-nu). Tumor volumes were determined using the formula: 0.52×(larger diameter)×(smaller diameter)×(depth). When the xenograft reached to 100 mm^3 in size, animals were randomly divided into two or three groups and received intratumoral or intravenous injection of 180 μg of 11R-C1958VIVIT, 11R-VEET, or PBS for 21 consecutive days. Tumor growth was assessed by calculating the ratio of tumor volume on the indicated day to the volume calculated on the initiation of treatment.

On to “RRRRRRRRRRR-GGG-KHLDVPDIIITPPTPT [11R-C1958]”, for which the “inhibition of growth of the cells (MTT assay)” value in data set [1] (peptide 25 μM) is reported as “neither 11R—C1958 (25 μM) nor 11R-VEET (40 μM) peptides, significantly inhibited the growth of the cells”.
With “RRRRRRRRRRR-GGG-MAGPPHIVEETGPHVI (RRRRRRRRRRRGGGMAGPPHIVEETGPHVI; Artificially synthesized peptide for inhibition of the interaction of C1958 and PPP3CA as control) [11R-VEET, 10, reference compound]”, the “sub-G1 fraction of the treated cells” value in data set [2] is given as “did not affect”. The “inhibition of growth of the cells (MTT assay)” value in data set [1] (peptide 40 μM) is listed as “neither 11R—C1958 (25 μM) nor 11R-VEET (40 μM) peptides, significantly inhibited the growth of the cells”.
As for “RRRRRRRRRRRGGGKHLDVPVIVITPPTPT [11R-C1958VIVIT, RRRRRRRRRRR-GGG-KHLDVPVIVITPPTPT]”, the “apparent negative effects on mice conditions” value in data set [3] is recorded as “nor apparent negative effects on mice conditions were observed”.
